ChEMBL document CHEMBL5500426, “Directly Suppressing MYC Function with Novel Alkynyl-Substituted Phenylpyrazole Derivatives that Induce Protein Degradation and Perturb MYC/MAX Interaction” (J Med Chem, 2024)
The source made the active and inactive calls. The calls are words filed in the database; no cut-off is given here.

Key:
[1] = system: PC-3; test: Antiproliferative activity against human PC-3 cells assessed as inhibition of cell growth incubated for 72 hrs by MTT assay; assay type: functional, cell-based; settings: PC-3, 72 h
[2] = Cytotoxicity against human HUVEC cells assessed as inhibition of cell growth incubated for 72 hrs by MTT assay; assay type: toxicity, cell-based
[3] = system: MDA-MB-231; test: Antiproliferative activity against human MDA-MB-231 cells assessed as inhibition of cell growth incubated for 72 hrs by MTT assay; assay type: functional, cell-based; settings: MDA-MB-231, 72 h
[4] = system: MDA-MB-468; test: Antiproliferative activity against human MDA-MB-468 cells assessed as inhibition of cell growth incubated for 72 hrs by MTT assay; assay type: functional, cell-based; settings: MDA-MB-468, 72 h
[5] = system: SK-N-BE(2); test: Antiproliferative activity against human SK-N-BE(2) cells assessed as inhibition of cell growth incubated for 72 hrs by MTT assay; assay type: functional, cell-based; settings: SKNBE2, 72 h
[6] = system: HCT-116; test: Antiproliferative activity against human HCT-116 cells assessed as inhibition of cell growth incubated for 72 hrs by MTT assay; assay type: functional, cell-based; settings: HCT-116, 72 h
[7] = system: SGC-7901; test: Antiproliferative activity against human SGC-7901 cells assessed as inhibition of cell growth incubated for 72 hrs by MTT assay; assay type: functional, cell-based; settings: SGC-7901, 72 h
[8] = system: SK-OV-3; test: Antiproliferative activity against human SK-OV-3 cells assessed as inhibition of cell growth incubated for 72 hrs by MTT assay; assay type: functional, cell-based; settings: SK-OV-3, 72 h
[9] = system: HL-60; test: Antiproliferative activity against human HL-60 cells assessed as inhibition of cell growth incubated for 72 hrs by MTT assay; assay type: functional, cell-based; settings: HL-60, 72 h
[10] = Half life in Sprague-Dawley rat at 2 mg/kg,iv administration by LC-MS/MS analysis; assay type: ADME, organism-based; settings: in vivo
[11] = Half life in Sprague-Dawley rat at 10 mg/kg,ip administration by LC-MS/MS analysis; assay type: ADME, organism-based; settings: in vivo
[12] = AUC (0 to t) in Sprague-Dawley rat at 10 mg/kg,ip administration by LC-MS/MS analysis; assay type: ADME, organism-based; settings: in vivo
[13] = Volume of distribution at steady state in Sprague-Dawley rat at 2 mg/kg,iv administration by LC-MS/MS analysis; assay type: ADME, organism-based; settings: in vivo, read-out: Vdss
[14] = Volume of distribution at steady state in Sprague-Dawley rat at 10 mg/kg,ip administration by LC-MS/MS analysis; assay type: ADME, organism-based; settings: in vivo
[15] = Clearance in Sprague-Dawley rat at 10 mg/kg,ip administration by LC-MS/MS analysis; assay type: ADME, organism-based; settings: in vivo
[16] = Bioavailability in Sprague-Dawley rat at 2 mg/kg,iv administration by LC-MS/MS analysis; assay type: ADME, organism-based; settings: in vivo
[17] = biological target: Myc proto-oncogene protein (Homo sapiens) (UniProt P01106); test: Inhibition of MYC in human PC-3 cells assessed as downregulation of MYC expression incubated for 24 hrs by Western blotting analysis; assay type: cell-based
Myc proto-oncogene protein (Homo sapiens), sequence (P01106 whole entry): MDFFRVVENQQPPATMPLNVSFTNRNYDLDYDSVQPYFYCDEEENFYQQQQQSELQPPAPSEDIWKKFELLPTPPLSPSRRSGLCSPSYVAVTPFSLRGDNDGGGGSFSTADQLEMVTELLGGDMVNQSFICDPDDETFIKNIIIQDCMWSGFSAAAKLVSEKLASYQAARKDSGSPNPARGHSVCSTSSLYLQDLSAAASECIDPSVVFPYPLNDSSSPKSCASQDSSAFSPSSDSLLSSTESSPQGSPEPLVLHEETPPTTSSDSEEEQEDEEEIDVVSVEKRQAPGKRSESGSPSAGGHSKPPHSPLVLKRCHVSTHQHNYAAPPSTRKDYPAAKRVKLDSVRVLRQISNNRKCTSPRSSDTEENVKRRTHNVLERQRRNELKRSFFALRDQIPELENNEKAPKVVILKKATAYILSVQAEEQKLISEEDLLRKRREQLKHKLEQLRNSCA

[18] = biological target: Myc proto-oncogene protein (Homo sapiens) (UniProt P01106); test: Inhibition of MYC in human PC-3 cells assessed as downregulation of MYC expression at 10 uM incubated for 24 hrs in presence of proteasome inhibitor MG132 by Western blotting analysis; assay type: cell-based
[19] = biological target: c-Myc/c-Max (Homo sapiens) (UniProt P01106+P61244); test: Inhibition of MYC/MAX protein-protein interaction in human PC-3 cells at 1 uM incubated for 30 mins; assay type: cell-based
c-Myc/c-Max (Homo sapiens), sequence (P01106 whole entry): as above
c-Myc/c-Max (Homo sapiens), sequence (P61244 2-160 partner limits assumed): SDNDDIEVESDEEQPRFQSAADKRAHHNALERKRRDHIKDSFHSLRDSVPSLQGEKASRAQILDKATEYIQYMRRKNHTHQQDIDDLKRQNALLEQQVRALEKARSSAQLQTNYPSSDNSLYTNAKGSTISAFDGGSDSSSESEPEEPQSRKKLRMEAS

[20] = biological target: Myc proto-oncogene protein (Homo sapiens) (UniProt P01106); test: Binding affinity to MYC in human PC-3 cells assessed as decrease in melting temperature at 10 uM with 37 to 52 degreeC incubated for 1 hr by CETSA based Western blotting analysis; assay type: cell-based
[21] = biological target: Protein max (Homo sapiens) (UniProt P61244); test: Binding affinity to MAX in human PC-3 cells assessed as effect on protein thermal stabilization at 10 uM with 37 to 58 degreeC incubated for 1 hr by CETSA based Western blotting analysis; assay type: cell-based
Protein max (Homo sapiens), sequence (P61244 whole entry): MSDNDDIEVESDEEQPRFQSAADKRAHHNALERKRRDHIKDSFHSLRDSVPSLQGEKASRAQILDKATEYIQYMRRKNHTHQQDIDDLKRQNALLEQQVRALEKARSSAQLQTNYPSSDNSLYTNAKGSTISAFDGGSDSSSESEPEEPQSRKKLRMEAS

[22] = system: PC-3; test: Antitumor activity against human PC-3 cells xenografted in BALB/C mouse assessed as tumor growth inhibition at 50 mg/kg,ip administrated daily for 21 consecutive days relative to control; assay type: functional; settings: read-out: TGI
[23] = system: PC-3; test: Antitumor activity against human PC-3 cells xenografted in BALB/C mouse assessed as tumor growth inhibition at 100 mg/kg,ip administrated daily for 21 consecutive days relative to control; assay type: functional; settings: read-out: TGI
[24] = Toxicity in BALB/C mouse xenografted with human PC-3 cells assessed as body weight loss at 50 to 100 mg/kg,ip administrated daily for 21 consecutive days; assay type: organism-based; settings: in vivo, dose 50-100 mg/kg
[25] = Toxicity in BALB/C mouse xenografted with human PC-3 cells assessed as histopathological change in heart at 50 to 100 mg/kg,ip administrated daily for 21 consecutive days by hematoxylin and eosin staining based microscopic analysis; assay type: organism-based; settings: in vivo, dose 50-100 mg/kg
[26] = Toxicity in BALB/C mouse xenografted with human PC-3 cells assessed as histopathological change in liver at 50 to 100 mg/kg,ip administrated daily for 21 consecutive days by hematoxylin and eosin staining based microscopic analysis; assay type: organism-based; settings: in vivo, dose 50-100 mg/kg
[27] = Toxicity in BALB/C mouse xenografted with human PC-3 cells assessed as histopathological change in spleen at 50 to 100 mg/kg,ip administrated daily for 21 consecutive days by hematoxylin and eosin staining based microscopic analysis; assay type: organism-based; settings: in vivo, dose 50-100 mg/kg
[28] = Toxicity in BALB/C mouse xenografted with human PC-3 cells assessed as histopathological change in kidney at 50 to 100 mg/kg,ip administrated daily for 21 consecutive days by hematoxylin and eosin staining based microscopic analysis; assay type: organism-based; settings: in vivo, dose 50-100 mg/kg
[29] = system: Myc-CaP; test: Antitumor activity against mouse Myc-CaP cells implanted in FVB mouse assessed as tumor growth inhibition at 10 mg/kg,ip administrated daily for 14 consecutive days relative to control; assay type: functional; settings: read-out: TGI
[30] = system: Myc-CaP; test: Antitumor activity against mouse Myc-CaP cells implanted in FVB mouse assessed as tumor growth inhibition at 30 mg/kg,ip administrated daily for 14 consecutive days relative to control; assay type: functional; settings: read-out: TGI
[31] = system: Myc-CaP; test: Antitumor activity against mouse Myc-CaP cells implanted in FVB mouse assessed as tumor growth inhibition at 50 mg/kg,ip administrated daily for 14 consecutive days relative to control; assay type: functional; settings: read-out: TGI
[32] = Toxicity in FVB mouse implanted with mouse Myc-CaP cells assessed as histopathological change in heart at 10 to 50 mg/kg,ip administrated daily for 14 consecutive days by hematoxylin and eosin staining based microscopic analysis; assay type: organism-based; settings: in vivo, dose 10-50 mg/kg
[33] = Toxicity in FVB mouse implanted with mouse Myc-CaP cells assessed as histopathological change in liver at 10 to 50 mg/kg,ip administrated daily for 14 consecutive days by hematoxylin and eosin staining based microscopic analysis; assay type: organism-based; settings: in vivo, dose 10-50 mg/kg
[34] = Toxicity in FVB mouse implanted with mouse Myc-CaP cells assessed as histopathological change in spleen at 10 to 50 mg/kg,ip administrated daily for 14 consecutive days by hematoxylin and eosin staining based microscopic analysis; assay type: organism-based; settings: in vivo, dose 10-50 mg/kg
[35] = Toxicity in FVB mouse implanted with mouse Myc-CaP cells assessed as histopathological change in lung at 10 to 50 mg/kg,ip administrated daily for 14 consecutive days by hematoxylin and eosin staining based microscopic analysis; assay type: organism-based; settings: in vivo, dose 10-50 mg/kg
[36] = system: Myc-CaP; test: Antiproliferative activity against mouse Myc-CaP cells assessed as inhibition of cell growth incubated for 72 hrs by MTT assay; assay type: functional, cell-based

IC50 [1]: 1.27 µM | IC50 [3]: 1.35 µM | IC50 [4]: 4.32 µM | IC50 [5]: 1.25 µM | IC50 [6]: 1.01 µM | IC50 [7]: 1.96 µM | IC50 [8]: 1.25 µM | IC50 [9]: 1.89 µM | half-life [10]: 3.22 h | half-life [11]: 5.97 h | AUC(0-t) [12]: 2220 ng·h/mL | Vd [13]: 6.41 L/kg | Vdss [14]: 38.43 L/kg | CL/F [15]: 74 mL/min/kg | bioavailability [16]: 31.7% | inhibition [17]: Dose-Dependent Effect | inhibition [18]: inactive | inhibition [19]: Active | Activity [20]: Active | Activity [21]: inactive
SMILES: Oc1c(-c2cc(C(F)(F)F)n[nH]2)ccc(C#CCCN2CCOCC2)c1-c1ccc(Cl)c(C(F)(F)F)c1
IC50 at 72 h [2]: 16.6 µM | inhibition in vivo at 50 mg/kg [22]: 33% | inhibition in vivo at 100 mg/kg [23]: 79% | Activity [24]: Toxic | Activity [25]: Non-Toxic | Activity [26]: Non-Toxic | Activity [27]: Non-Toxic | Activity [28]: Non-Toxic | inhibition in vivo at 10 mg/kg [29]: 37% | inhibition in vivo at 30 mg/kg [30]: 67% | inhibition in vivo at 50 mg/kg [31]: 85% | Activity [32]: Non-Toxic | Activity [33]: Non-Toxic | Activity [34]: Non-Toxic | Activity [35]: Non-Toxic | IC50 [36]: 0.55 µM
